Earlier results, collected in patent US20060204571A1, “Stable compositions of bupropion or its pharmaceutically acceptable salts” (Sun Pharmaceutical Industries Limited, priority 2005, published 2006).

Conditions: background statement

CC(NC(C)(C)C)C(=O)c1cccc(Cl)c1.Cl (racemic) [Bupropion hydrochloride, (±)-1-(3-chlorophenyl)-2-[(1,1-dimethylethyl)amino]-1-propanone hydrochloride]
solubility in water (in words): water-soluble
